# Columns and labels:
# [1] = Acute toxicity (LD50), method of Lichtfield and Wilcoxon, rats; conditions: rat, in vivo
# [2] = Acute toxicity (LD50), method of Lichtfield and Wilcoxon, mice; conditions: mouse, in vivo
# [3] = Chronic toxicity test, 3 months; type: in vivo, rats
# Text: The chronic toxicity tests confirmed the low toxicity of the product.
# choleresis = test: Choleretic activity; type: in vivo; conditions: rats
# [4] = test system: hepatic steatosis and hypercholesterolemia induced by Handler's steatogenic diet; test: Anti-steatotic activity (Handler's steatogenic diet); type: in vivo; conditions: rats, 50 mg/kg daily
# Protocol: Administration of the test material to rats at a daily dosage of 50 mg/kg inhibits the hepatic steatosis and the hypercholesterolemia induced by Handler's steatogenic diet.
# [5] = test system: hypercholesterolemia induced by Twin-Triton; test: Hypocholesterolemic activity (Twin-Triton-induced hypercholesterolemia); type: in vivo; conditions: rats, 200 mg/kg Twin-Triton i.p.
# [6] = test system: experimental phlogistic reaction; test: Antiphlogistic activity, experimental phlogistic reaction; type: in vivo; conditions: rats, intraperitoneal or oral, 50 mg/kg to 300 mg/kg
# Protocol: Intraperitoneal or oral administration of the test material at dosages within the range of from 50 mg/kg to 300 mg/kg inhibits the experimental phlogistic reaction induced in rats.
# [7] = test system: oedema of the rat's paw induced by dextran; test: Antiphlogistic activity, oedema of the rat's paw induced by dextran; type: in vivo
# [8] = test system: oedema of the rat's paw induced by carageenin; test: Antiphlogistic activity, oedema of the rat's paw induced by carageenin; type: in vivo
# [9] = test system: granulomatous reaction induced by the sub-cutaneous penetration of foreign bodies; test: Experimental granuloma test; type: in vivo
# [10] = test system: anaphylactic reaction and death induced in guinea-pigs sensitized with horse serum; test: Antianaphylactic activity; type: in vivo
# Protocol: Administration to […] of the test compound at a dosage of 60 mg/kg by the oral route or of 50 mg/kg by the intraperitoneal route inhibits the anaphylactic reaction and the death induced in guinea-pigs sensitized with horse serum.
structure (smiles),measurement,setting,value
"CC(C)(Oc1cccc2ccccc12)C(=O)Nc1ccc(C(=O)O)cc1 [Compound 1, p-[α-(α-naphthoxy)isobutyramido]benzoic acid]",LD50,"[1]; ip, intraperitoneal",425 mg/kg
same,LD50,[1]; oral,2200 mg/kg
same,LD50,"[2]; ip, intraperitoneal",395 mg/kg
same,LD50,[2]; oral,2500 mg/kg
same,intolerance and toxicity,"[3]; 50 mg/kg, 3 months",did not induce any intolerance and any toxicity
same,"blood, glycemia, transaminases, urinary excretion and azotemia","[3]; 50 mg/kg, 3 months, treated rats, beginning and end of treatment",failed to disclose any significant change or pathological modification
same,chronic toxicity (overall),[3]; chronic toxicity tests,low toxicity
same,elimination of biliary pigments or cholesterol,choleresis,increase concerns the elimination of either the biliary pigments or cholesterol
same,choleresis,"choleresis; intraperitoneal, 20 mg/kg",significant increase of choleresis
same,choleresis,"choleresis; oral, 100 mg/kg",significant increase of choleresis
same,increase of the choleresis compared with dehydrocholic acid,choleresis; versus dehydrocholic acid,more substantial and more extended than that induced by dehydrocholic acid
same,inhibition of hepatic steatosis,[4],inhibits
same,inhibition of hypercholesterolemia,[4],inhibits
same,inhibition of hypercholesterolemia,[5]; 100 mg/kg intraperitoneal,inhibits
same,inhibition of hypercholesterolemia,[5]; 300 mg/kg oral,inhibits
same,inhibition of experimental phlogistic reaction,[6],inhibits
same,inhibition of paw oedema induced by dextran,[7],inhibits
same,inhibition of paw oedema induced by carageenin,[8],inhibits
same,inhibition of granulomatous reaction,[9],inhibits
same,inhibition of anaphylactic reaction and death,[10]; 50 mg/kg intraperitoneal,inhibits
same,inhibition of anaphylactic reaction and death,[10]; 60 mg/kg oral,inhibits
